Experimental data reported in patent US20140073639A1 (priority 2012, published 2014).
Values after ≈ are worked out from the molar mass of the structure shown. Values joined by “and” are separate entries in the source; they are usually repeats but may differ in a detail not shown here. Equal entries are not always repeated. Where two headings read alike, the source gives them in different places.

Assays:
B. Anthracis = test: microbe, parasite or virus in culture; format: cell-based; settings: for inhibition at 3 µM / inhibition at 10 µM / inhibition at 30 µM: Bacillus anthracis; for inhibition at 3 µM: read-out: B. Anthracis 3 μM (growth inhibition); for inhibition at 10 µM: read-out: B. Anthracis 10 μM (growth inhibition); for inhibition at 30 µM: read-out: B. Anthracis 30 μM (growth inhibition)
S. MRSA = test: microbe, parasite or virus in culture; format: cell-based; settings: for inhibition at 3 µM / inhibition at 10 µM / inhibition at 30 µM: Staphylococcus aureus, MRSA; for inhibition at 3 µM: read-out: S. MRSA 3 μM (growth inhibition); for inhibition at 10 µM: read-out: S. MRSA 10 μM (growth inhibition); for inhibition at 30 µM: read-out: S. MRSA 30 μM (growth inhibition)
[1] = format: cell-based
S. aureus RN4220 [2] = test: microbe, parasite or virus in culture; format: cell-based; settings: Staphylococcus aureus, 37° C., 24 hours
B. anthracis ΔSterne = format: cell-based
S. aureus strain RN4220 = format: cell-based, Staphylococcus aureus
[3] = system: Gram-positive organisms that also encode 2-epimerases; format: cell-based
B. anthracis Sterne = format: in vivo, C57BL/6 mice
S. aureus RN4220 [4] = format: cell-based

O=C(O)[C@H](Cc1ccccc1)N1C(=O)/C(=C\c2ccc(-c3ccc(Cl)c(Cl)c3)o2)NC1=S [Cmpd 48]
inhibition at 3 µM (B. Anthracis; 3 μM): -0.39% | inhibition at 10 µM (B. Anthracis; 10 μM): 108% | inhibition at 30 µM (B. Anthracis; 30 μM): 107% | inhibition at 3 µM (S. MRSA; 3 μM): -16.1% | inhibition at 10 µM (S. MRSA; 10 μM): 80.6% | inhibition at 30 µM (S. MRSA; 30 μM): 104% | MIC, 25% Serum [1]: 250 µM (≈ 122 µg/mL) | MIC, No Serum [1]: 7.8 µM (≈ 3.8 µg/mL)

COc1ccc(-c2ccc(/C=C3/NC(=S)N([C@@H](Cc4ccccc4)C(=O)O)C3=O)o2)cc1Cl [Cmpd 52]
inhibition at 3 µM (B. Anthracis; 3 μM): -5.68% | inhibition at 10 µM (B. Anthracis; 10 μM): 27.3% | inhibition at 30 µM (B. Anthracis; 30 μM): 95.5% | inhibition at 3 µM (S. MRSA; 3 μM): -7.99% | inhibition at 10 µM (S. MRSA; 10 μM): -11.7% | inhibition at 30 µM (S. MRSA; 30 μM): 82.2% | MIC, 25% Serum [1]: >250 µM | MIC, No Serum [1]: 62.5 µM (≈ 30.2 µg/mL)

O=C(O)[C@H](Cc1ccccc1)N1C(=O)/C(=C\c2ccc(-c3cc(C(F)(F)F)ccc3Cl)o2)NC1=S [Cmpd 53]
inhibition at 3 µM (B. Anthracis; 3 μM): 88.2% | inhibition at 10 µM (B. Anthracis; 10 μM): 95.5% | inhibition at 30 µM (B. Anthracis; 30 μM): 92.5% | inhibition at 3 µM (S. MRSA; 3 μM): -4.72% | inhibition at 10 µM (S. MRSA; 10 μM): 92.3% | inhibition at 30 µM (S. MRSA; 30 μM): 92.9% | MIC, 25% Serum [1]: >250 µM | MIC, No Serum [1]: 15.6 µM (≈ 8.13 µg/mL)

NC(=O)C(Cc1ccccc1)N1C(=O)/C(=C\c2ccc(-c3ccc(Cl)c(Cl)c3)o2)NC1=S (stereo not drawn) [Cmpd 54]
inhibition at 3 µM (B. Anthracis; 3 μM): 20.6% | inhibition at 10 µM (B. Anthracis; 10 μM): 94.8% | inhibition at 30 µM (B. Anthracis; 30 μM): 93% | inhibition at 3 µM (S. MRSA; 3 μM): 2.03% | inhibition at 10 µM (S. MRSA; 10 μM): 30.1% | inhibition at 30 µM (S. MRSA; 30 μM): 57.5% | MIC, 25% Serum [1]: >250 µM | MIC, No Serum [1]: >250 µM

CCOC(=O)C(Cc1ccccc1)N1C(=O)/C(=C\c2ccc(-c3ccc(Cl)c(Cl)c3)o2)NC1=S (stereo not drawn) [Cmpd 55]
inhibition at 10 µM (B. Anthracis; 10 μM): -50.8% | inhibition at 30 µM (B. Anthracis; 30 μM): -6.41% | inhibition at 10 µM (S. MRSA; 10 μM): 0.57% | inhibition at 30 µM (S. MRSA; 30 μM): -2.92% | MIC, 25% Serum [1]: >250 µM | MIC, No Serum [1]: >250 µM

CS(=O)(=O)NC(=O)C(Cc1ccccc1)N1C(=O)/C(=C\c2ccc(-c3ccc(Cl)c(Cl)c3)o2)NC1=S (stereo not drawn) [Cmpd 57]
inhibition at 3 µM (B. Anthracis; 3 μM): 45.2% | inhibition at 10 µM (B. Anthracis; 10 μM): 96.4% | inhibition at 30 µM (B. Anthracis; 30 μM): 90.2% | inhibition at 3 µM (S. MRSA; 3 μM): 3.18% | inhibition at 10 µM (S. MRSA; 10 μM): 30.9% | inhibition at 30 µM (S. MRSA; 30 μM): 58% | MIC, 25% Serum [1]: >250 µM | MIC, No Serum [1]: 15.6 µM (≈ 8.81 µg/mL)

O=C(NS(=O)(=O)C(F)(F)F)C(Cc1ccccc1)N1C(=O)/C(=C\c2ccc(-c3ccc(Cl)c(Cl)c3)o2)NC1=S (stereo not drawn) [Cmpd 58]
inhibition at 3 µM (B. Anthracis; 3 μM): 69.4% | inhibition at 10 µM (B. Anthracis; 10 μM): 98.7% | inhibition at 30 µM (B. Anthracis; 30 μM): 97.4% | inhibition at 3 µM (S. MRSA; 3 μM): 0.23% | inhibition at 10 µM (S. MRSA; 10 μM): 81.7% | inhibition at 30 µM (S. MRSA; 30 μM): 94.5% | MIC, 25% Serum [1]: >250 µM | MIC, No Serum [1]: 7.8 µM (≈ 4.82 µg/mL)

CCC(C(=O)NS(C)(=O)=O)N1C(=O)/C(=C\c2ccc(-c3ccc(Cl)c(Cl)c3)o2)NC1=S (stereo not drawn) [Cmpd 59]
inhibition at 3 µM (B. Anthracis; 3 μM): 6.4% | inhibition at 10 µM (B. Anthracis; 10 μM): 6.23% | inhibition at 30 µM (B. Anthracis; 30 μM): 19.6% | inhibition at 3 µM (S. MRSA; 3 μM): 1.71% | inhibition at 10 µM (S. MRSA; 10 μM): 2.56% | inhibition at 30 µM (S. MRSA; 30 μM): 0.06% | MIC, 25% Serum [1]: >250 µM | MIC, No Serum [1]: 125 µM (≈ 62.8 µg/mL)

O=C(O)C(Cc1ccccc1)N1C(=O)/C(=C\c2ccc(-c3ccccc3)o2)NC1=S (stereo not drawn) [Cmpd 60]
inhibition at 3 µM (B. Anthracis; 3 μM): 2.29% | inhibition at 10 µM (B. Anthracis; 10 μM): 11.6% | inhibition at 30 µM (B. Anthracis; 30 μM): 18% | inhibition at 3 µM (S. MRSA; 3 μM): -2.55% | inhibition at 10 µM (S. MRSA; 10 μM): -5.71% | inhibition at 30 µM (S. MRSA; 30 μM): -8.8% | MIC, 25% Serum [1]: >250 µM | MIC, No Serum [1]: 125 µM (≈ 52.3 µg/mL)

Cc1oc(=O)oc1COC(=O)C(Cc1ccccc1)N1C(=O)/C(=C\c2ccc(-c3ccc(Cl)c(Cl)c3)o2)NC1=S (stereo not drawn) [Cmpd 64]
inhibition at 3 µM (B. Anthracis; 3 μM): -0.01% | inhibition at 10 µM (B. Anthracis; 10 μM): 0.22% | inhibition at 30 µM (B. Anthracis; 30 μM): -1.34% | inhibition at 3 µM (S. MRSA; 3 μM): 0.71% | inhibition at 10 µM (S. MRSA; 10 μM): -1.48% | inhibition at 30 µM (S. MRSA; 30 μM): -3.34% | MIC, 25% Serum [1]: >250 µM | MIC, No Serum [1]: >250 µM

O=C([O-])C(Cc1ccccc1)N1C(=O)/C(=C\c2ccc(-c3ccc(Cl)c(Cl)c3)o2)NC1=S.[Na+] (stereo not drawn) [Cmpd 65]
B. Anthracis 3 μM (growth inhibition) (B. Anthracis; 3 μM): 108.67 | B. Anthracis 10 μM (growth inhibition) (B. Anthracis; 10 μM): 107.86 | B. Anthracis 30 μM (growth inhibition) (B. Anthracis; 30 μM): 104.01 | S. MRSA 3 μM (growth inhibition) (S. MRSA; 3 μM): 0.9 | S. MRSA 10 μM (growth inhibition) (S. MRSA; 10 μM): 104.72 | S. MRSA 30 μM (growth inhibition) (S. MRSA; 30 μM): 105.68 | MIC, 25% Serum [1]: >250 µM | MIC, No Serum [1]: 7.8 µM

O=C([O-])C(Cc1ccccc1)N1C(=O)/C(=C\c2ccc(-c3cccc(Cl)c3)o2)NC1=S.[Na+] (stereo not drawn) [Cmpd 67]
inhibition at 3 µM (B. Anthracis; 3 μM): 6.01% | inhibition at 10 µM (B. Anthracis; 10 μM): 4.51% | inhibition at 30 µM (B. Anthracis; 30 μM): 87.6% | inhibition at 3 µM (S. MRSA; 3 μM): 0.37% | inhibition at 10 µM (S. MRSA; 10 μM): -4.15% | inhibition at 30 µM (S. MRSA; 30 μM): -7.41% | MIC, 25% Serum [1]: >250 µM | MIC, No Serum [1]: 250 µM

N#CNC(=O)C(Cc1ccccc1)N1C(=O)/C(=C\c2ccc(-c3cccc(Cl)c3)o2)NC1=S (stereo not drawn) [Cmpd 68]
inhibition at 3 µM (B. Anthracis; 3 μM): -1.9% | inhibition at 10 µM (B. Anthracis; 10 μM): 6.31% | inhibition at 30 µM (B. Anthracis; 30 μM): 12.5% | inhibition at 3 µM (S. MRSA; 3 μM): -0.24% | inhibition at 10 µM (S. MRSA; 10 μM): -1.1% | inhibition at 30 µM (S. MRSA; 30 μM): -0.93% | MIC, 25% Serum [1]: >250 µM | MIC, No Serum [1]: 125 µM (≈ 59.6 µg/mL)

N#CNC(=O)C(Cc1ccccc1)N1C(=O)/C(=C\c2ccc(-c3ccc(Cl)c(Cl)c3)o2)NC1=S (stereo not drawn) [Cmpd 69]
inhibition at 3 µM (B. Anthracis; 3 μM): 0.13% | inhibition at 10 µM (B. Anthracis; 10 μM): 100% | inhibition at 30 µM (B. Anthracis; 30 μM): 99.2% | inhibition at 3 µM (S. MRSA; 3 μM): 0.03% | inhibition at 10 µM (S. MRSA; 10 μM): 0.65% | inhibition at 30 µM (S. MRSA; 30 μM): 97.5% | MIC, 25% Serum [1]: 250 µM (≈ 128 µg/mL) | MIC, No Serum [1]: 15.6 µM (≈ 7.98 µg/mL)

O=C(O)C(Cc1ccccc1)N1C(=O)/C(=C\c2ccc(-c3ccnc(Cl)c3)o2)NC1=S (stereo not drawn) [Cmpd 70]
inhibition at 3 µM (B. Anthracis; 3 μM): 2.54% | inhibition at 10 µM (B. Anthracis; 10 μM): 16% | inhibition at 30 µM (B. Anthracis; 30 μM): 4.62% | inhibition at 3 µM (S. MRSA; 3 μM): -0.84% | inhibition at 10 µM (S. MRSA; 10 μM): -1.26% | inhibition at 30 µM (S. MRSA; 30 μM): -1.4% | MIC, 25% Serum [1]: >250 µM | MIC, No Serum [1]: 125 µM (≈ 56.7 µg/mL)

O=C(O)C(Cc1ccccc1)N1C(=O)/C(=C\c2ccc(Cl)c(Cl)c2)NC1=S (stereo not drawn) [Cmpd 71]
inhibition at 3 µM (B. Anthracis; 3 μM): 0.05% | inhibition at 10 µM (B. Anthracis; 10 μM): -8.93% | inhibition at 30 µM (B. Anthracis; 30 μM): -17.3% | inhibition at 3 µM (S. MRSA; 3 μM): -0.86% | inhibition at 10 µM (S. MRSA; 10 μM): -2.74% | inhibition at 30 µM (S. MRSA; 30 μM): -5.12% | MIC, 25% Serum [1]: >250 µM | MIC, No Serum [1]: >250 µM

O=C(O)C(Cc1ccccc1)N1C(=O)/C(=C\c2ccc(-c3ncc(Cl)cc3Cl)o2)NC1=S (stereo not drawn) [Cmpd 72]
inhibition at 3 µM (B. Anthracis; 3 μM): -13.5% | inhibition at 10 µM (B. Anthracis; 10 μM): 9.07% | inhibition at 30 µM (B. Anthracis; 30 μM): 98.1% | inhibition at 3 µM (S. MRSA; 3 μM): -2.17% | inhibition at 10 µM (S. MRSA; 10 μM): -5.02% | inhibition at 30 µM (S. MRSA; 30 μM): 53% | MIC, 25% Serum [1]: 250 µM (≈ 122 µg/mL) | MIC, No Serum [1]: 62.5 µM (≈ 30.5 µg/mL)

O=C(O)C(Cc1ccccc1)N1C(=O)/C(=C\c2ccc(-c3ccc(Br)cc3)s2)NC1=S (stereo not drawn) [Epimerox, 2-{4-[5-(4-bromophenyl)-thiophen-2-ylmethylene]-5-oxo-2-thioxo-imidazolidin-1-yl}-3-phenyl-propionic acid]
MIC (S. aureus RN4220 [2]): 8 µg/mL and 16 µM | concentrations that effectively blocked growth (B. anthracis ΔSterne): above 3 μM | Epimerox concentrations at which strain did not grow (S. aureus strain RN4220): above 7.5 μm1^−1 | growth of S. aureus (S. aureus strain RN4220): grew very poorly | growth of many other Gram-positive organisms [3]: inhibited the growth | B. anthracis in the major organs (B. anthracis Sterne; after 2 days): not observed | B. anthracis in the major organs (B. anthracis Sterne; at 20 hours): detected | animals survived 14 days (B. anthracis Sterne; mouse, in vivo): 100% and 66% | MIC plateau, serial passage (S. aureus RN4220 [4]): 12 μg m1^−1 | starting MIC, serial passage (S. aureus RN4220 [4]): 5.0 μg m1^−1
